How the values were obtained:
Format in all cases: cell-based
Settings in all cases: Mus musculus, BaF3, 72 hours, CellTiter-Glo
[1] = system: Ba/F3 cells expressing EGFR Exon20 ins NPH; assay: Ba/F3 proliferation suppression activity, cells expressing EGFR Exon20 ins NPH
Description: A following experiment was carried out to evaluate the suppression activity of the compounds according to the present invention against the proliferation of Ba/F3 which expresses EGFR mutations.
(§1) For the Ba/F3 cells, a RPMI-1640 medium containing 10% FBS and 5 ng/ml IL-3 (R&D Systems) was used. The transduced Ba/F3 cells were cultured in a medium, which is same as the above medium, but 1 ug/ml puromycin (Invitrogen) was additionally added to.
(§2) 24 hours before the treatment of the cells with the compounds, 3000 to 5000 cells were distributed into each well of a white clear bottom 96 well plate (Corning). The compounds were diluted in a dimethyl sulfoxide (e.g. dilution ratio of 3:1 and total 12 concentrations) and then injected by 0.5 ul respectively, such that a final concentration amounted to 0.3 nM to 50 uM. 72 hours after the treatment with the compounds, the measurement of live cells was made in such way that these cells were stored for 10 minutes at a room temperature using a CellTiter-Glo luminescent cell-viability reagent (Promega) and then their luminescence intensities were measured using a reader (i.e. Synergy Neo, Biotek). Each test was repeated three times.
(§3) resulting values were calculated as a cell growth ratio (%) compared to a control. Then, the graphs were drawn and the […] values were calculated by using a program, GraphPad Prism version 5.0.

[2] = system: Ba/F3 cells expressing HER2 YVMA Exon 20ins; assay: Ba/F3 proliferation suppression activity, cells expressing HER2 YVMA Exon 20ins
Description: as §1, §2, §3

[3] = system: Ba/F3 cells expressing HER2 WT; assay: Ba/F3 proliferation suppression activity, cells expressing ErbB2 (HER2) wild type
Description: as §1, §2, §3

SMILES	GI50 [1]	GI50 [2]	GI50 [3]
C=CCN1CCN(c2cc(OC)c(Nc3cc(N4OCC[C@@H]4c4ccc(F)c(C(F)(F)F)c4)ncn3)cc2NC(=O)C=C)CC1 [Compound 41]	< 50 nM	< 50 nM	< 50 nM
C=CC(=O)Nc1cc(Nc2cc(N3OCC[C@@H]3c3ccc(F)c(C(F)(F)F)c3)ncn2)c(OC)cc1N1CCN(CCC)CC1 [Compound 55]	< 50 nM	< 50 nM	< 50 nM
C=CC(=O)Nc1cc(Nc2cc(N3OCC[C@@H]3c3ccc(F)c(C(F)(F)F)c3)ncn2)c(OC)cc1N1CCC(N2CCO[C@@H](C)C2)CC1 [Compound 58]	< 50 nM	< 50 nM	–
C=CC(=O)Nc1cc(Nc2cc(N3OCC[C@@H]3c3cccc(C(F)(F)F)c3F)ncn2)c(OC)cc1N1CCOCC1 [Compound 65]	50 to 500 nM	–	–
C=CC(=O)Nc1cc(Nc2cc(N3OCC[C@@H]3c3ccc(F)c(C(F)(F)F)c3)ncn2)c(OC)cc1N1CCC(N(C)C)CC1 [Compound 39]	< 50 nM	–	–
C=CC(=O)Nc1cc(Nc2cc(N3OCC[C@@H]3c3cccc(C(F)(F)F)c3)ncn2)ccc1N1CCN(C)CC1 [Compound 31]	50 to 500 nM	–	–
C=CC(=O)Nc1cc(Nc2cc(N3OCC[C@@H]3c3cc(F)cc(C(F)(F)F)c3)ncn2)c(OC)cc1N1CCC(N(CC)CC)CC1 [Compound 16]	< 50 nM	–	–
C=CC(=O)Nc1cc(Nc2cc(N3OCC[C@@H]3c3cccc(C(F)(F)F)c3F)ncn2)c(OC)cc1N1CCC[C@@H]1CN1CCC1 [Compound 72]	50 to 500 nM	–	–
C=CC(=O)Nc1cc(Nc2cc(N3OCC[C@@H]3c3cccc(C(F)(F)F)c3)ncn2)c(OC)cc1N1CCCN(C)CC1 [Compound 26]	< 50 nM	–	–
C=CC(=O)Nc1cc(Nc2cc(N3OCC[C@@H]3c3cccc(C(F)(F)F)c3F)ncn2)c(OC)cc1N1CCC(N(C)C)CC1 [Compound 82]	< 50 nM	–	–
C=CC(=O)Nc1cc(Nc2cc(N3OCC[C@@H]3c3ccc(F)c(C(F)(F)F)c3)ncn2)c(OC)cc1N1C[C@@H]2C[C@H]1CO2 [Compound 54]	50 to 500 nM	–	–
C=CC(=O)Nc1cc(Nc2cc(N3OCC[C@@H]3c3cccc(C(F)(F)F)c3)ncn2)c(OC)cc1N1CCN(C)[C@H](C)C1 [Compound 8]	< 50 nM	–	–
C=CC(=O)Nc1cc(Nc2cc(N3OCC[C@@H]3c3ccc(F)c(C(F)(F)F)c3)ncn2)c(OC)cc1N1CCC(N(CC)CC)CC1 [Compound 47]	< 50 nM	–	–
C=CC(=O)Nc1cc(Nc2cc(N3OCC[C@@H]3c3cccc(C(F)(F)F)c3F)ncn2)c(OC)cc1N1CCN(C)CC1 [Compound 60]	< 50 nM	< 50 nM	–
C=CC(=O)Nc1cc(Nc2cc(N3OCC[C@@H]3c3cc(F)cc(F)c3)ncn2)c(OC)cc1SCCN(C)C [Compound 101]	< 50 nM	–	–
C=CC(=O)Nc1cc(Nc2cc(N3OCC[C@@H]3c3cccc(C(F)(F)F)c3)ncn2)c(OC)cc1N1CCN(CC2CC2)CC1 [Compound 25]	< 50 nM	–	–
C=CC(=O)Nc1cc(Nc2cc(N3OCC[C@@H]3c3cccc(C(F)(F)F)c3)ncn2)c(OC)cc1N1CCN(C2COC2)CC1 [Compound 23]	< 50 nM	–	–

SMILES	GI50 [1]	GI50 [2]	GI50 [3]
C=CC(=O)Nc1cc(Nc2cc(N3OCCC3c3cccc4c3cnn4C)ncn2)c(OC)cc1N1CCN(C)CC1 (centres unmarked) [Compound 125]	50 to 500 nM	–	–
C=CC(=O)Nc1cc(Nc2cc(N3OCC[C@@H]3c3cccc(C(F)(F)F)c3F)ncn2)c(OC)cc1N1C[C@H]2C[C@@H]1CO2 [Compound 86]	50 to 500 nM	–	–
C=CC(=O)Nc1cc(Nc2cc(N3OCC[C@@H]3c3ccc(F)c(C(F)(F)F)c3)ncn2)c(OC)cc1N1CCN(C)CC1 [Compound 37]	< 50 nM	< 50 nM	–
C=CC(=O)Nc1cc(Nc2cc(N3OCC[C@@H]3c3cccc(C(F)(F)F)c3F)ncn2)c(OC)cc1N1CCN(C)[C@@H](C)C1 [Compound 76]	< 50 nM	–	–
C=CC(=O)Nc1cc(Nc2cc(N3OCC[C@@H]3c3ccc(Cl)c(C(F)(F)F)c3)ncn2)c(OC)cc1N1CCN(CC)CC1 [Compound 33]	50 to 500 nM	–	–
C=CC(=O)Nc1cc(Nc2cc(N3OCC[C@@H]3c3cccc(C(F)(F)F)c3)ncn2)c(OC)cc1N1CCC(N(CC)CC)CC1 [Compound 20]	< 50 nM	–	–
C=CC(=O)Nc1cc(Nc2cc(N3OCC[C@@H]3c3ccc(Cl)c(C(F)(F)F)c3)ncn2)c(OC)cc1N1CCN(C)CC1 [Compound 32]	50 to 500 nM	–	–
C=CC(=O)Nc1cc(Nc2cc(N3OCC[C@@H]3c3cc(F)cc(C(F)(F)F)c3)ncn2)c(OC)cc1N1CCC(N2CCC2)CC1 [Compound 19]	< 50 nM	–	–
C=CC(=O)Nc1cc(Nc2cc(N3OCC[C@@H]3c3cccc(C(F)(F)F)c3F)ncn2)c(OC)cc1N(C)CCN(C)C [Compound 61]	< 50 nM	< 50 nM	–
C=CC(=O)Nc1cc(Nc2cc(N3OCC[C@@H]3c3cc(F)cc(C(F)(F)F)c3)ncn2)c(OC)cc1N(C)CCN(C)C [Compound 17]	< 50 nM	–	–
C=CC(=O)Nc1cc(Nc2cc(N3OCC[C@@H]3c3ccc(F)c(C(F)(F)F)c3)ncn2)c(OC)cc1N(C)CCN(C)C [Compound 36]	< 50 nM	–	–
C=CC(=O)Nc1cc(Nc2cc(N3OCC[C@@H]3c3cc(F)cc(C(F)(F)F)c3)ncn2)c(OC)cc1N1CCN(C)[C@H](C)C1 [Compound 11]	50 to 500 nM	–	–
C=CC(=O)Nc1cc(Nc2cc(N3OCC[C@@H]3c3cc(F)cc(C(F)(F)F)c3)ncn2)c(OC)cc1N1CCC(N2CCCC2)CC1 [Compound 18]	< 50 nM	–	–
C=CC(=O)Nc1cc(Nc2cc(N3OCC[C@@H]3c3cc(F)cc(C(F)(F)F)c3)ncn2)c(OC)cc1N1CCN(C)CC1 [Compound 3]	50 to 500 nM	–	–
C=CCN1CCN(c2cc(OC)c(Nc3cc(N4OCC[C@@H]4c4cccc(C(F)(F)F)c4F)ncn3)cc2NC(=O)C=C)CC1 [Compound 94]	< 50 nM	–	–
C=CC(=O)Nc1cc(Nc2cc(N3OCC[C@@H]3c3cccc(C(F)(F)F)c3)ncn2)c(OC)cc1N1C[C@H]2C[C@@H]1CO2 [Compound 28]	50 to 500 nM	–	–

The next lines start with the values.

GI50 [1]	GI50 [2]	GI50 [3]	SMILES
< 50 nM	< 50 nM	–	C=CC(=O)Nc1cc(Nc2cc(N3OCC[C@@H]3c3cccc(C(F)(F)F)c3F)ncn2)c(OC)cc1N1CCC(N2CCN(C3CC3)CC2)CC1 [Compound 62]
< 50 nM	< 50 nM	< 50 nM	C=CC(=O)Nc1cc(Nc2cc(N3OCC[C@@H]3c3ccc(F)c(C(F)(F)F)c3)ncn2)c(OC)cc1N1CCC(N2CCN(C3CC3)[C@@H](C)C2)CC1 [Compound 52]
50 to 500 nM	–	–	C=CC(=O)Nc1cc(Nc2cc(N3OCC[C@@H]3c3cccc(C(F)(F)F)c3)ncn2)c(OC)cc1N1CCC(N2CCC(N3CCN(C)CC3)CC2)CC1 [Compound 14]
< 50 nM	–	–	C=CC(=O)Nc1cc(Nc2cc(N3OCC[C@@H]3c3cccc(C(F)(F)F)c3)ncn2)c(OC)cc1N1CCC(N2CCC2)CC1 [Compound 21]
50 to 500 nM	–	–	C=CC(=O)Nc1cc(Nc2cc(N3OCC[C@@H]3c3cccc(C(F)(F)F)c3)ncn2)c(OC)cc1N1CCC(N2CCC(N3CCN(C4CC4)CC3)CC2)CC1 [Compound 13]
< 50 nM	–	–	C=CC(=O)Nc1cc(Nc2cc(N3OCC[C@@H]3c3cccc(C(F)(F)F)c3F)ncn2)c(OC)cc1N1CCC(N2C[C@H]3C[C@@H]2CO3)CC1 [Compound 89]
< 50 nM	–	–	C=CC(=O)Nc1cc(Nc2cc(N3OCC[C@@H]3c3ccc(F)c(C(F)(F)F)c3)ncn2)c(OC)cc1N1CCC(N2CCN(C3CC3)CC2)CC1 [Compound 49]
< 50 nM	–	–	C=CC(=O)Nc1cc(Nc2cc(N3OCC[C@@H]3c3cccc(C(F)(F)F)c3F)ncn2)c(OC)cc1N1CCC(N2CCN(C)CC2)CC1 [Compound 90]
50 to 500 nM	–	–	C=CC(=O)Nc1cc(Nc2cc(N3OCC[C@@H]3c3cccc(C(F)(F)F)c3F)ncn2)c(OC)cc1N1CCC(N2CCN(C3CC3)C(C)(C)C2)CC1 [Compound 83]
< 50 nM	–	–	C=CC(=O)Nc1cc(Nc2cc(N3OCC[C@@H]3c3cccc(C(F)(F)F)c3F)ncn2)c(OC)cc1N1CCC(N2CCC2)CC1 [Compound 71]
50 to 500 nM	–	–	C=CC(=O)Nc1cc(Nc2cc(N3OCC[C@@H]3c3cccc(C(F)(F)F)c3F)ncn2)c(OC)cc1N1CCN(C2CC2)CC1 [Compound 81]
50 to 500 nM	–	–	C=CC(=O)Nc1cc(Nc2cc(N3OCC[C@@H]3c3cccc(C(F)(F)F)c3F)ncn2)c(OC)cc1N1CCC(N2CCN(C)C(=O)C2)CC1 [Compound 74]
50 to 500 nM	–	–	C=CC(=O)Nc1cc(Nc2cc(N3OCCC3c3cc(Cl)cc(C(F)(F)F)c3)ncn2)c(OC)cc1N1CCC(N2CCN(C3CC3)CC2)CC1 (centres unmarked) [Compound 51]
< 50 nM	–	–	C=CC(=O)Nc1cc(Nc2cc(N3OCC[C@@H]3c3ccc(F)c(C(F)(F)F)c3)ncn2)c(OC)cc1N1CCC(N2CCC2)CC1 [Compound 48]
< 50 nM	< 50 nM	–	C=CC(=O)Nc1cc(Nc2cc(N3OCC[C@@H]3c3ccc(F)c(C(F)(F)F)c3)ncn2)c(OC)cc1N1CCC(N2CCN(C3CC3)[C@H](C)C2)CC1 [Compound 53]
50 to 500 nM	–	–	C=CC(=O)Nc1cc(Nc2cc(N3OCC[C@@H]3c3cccc(C(F)(F)F)c3F)ncn2)c(OC)cc1N1CCC(N2CCCN(C3CC3)CC2)CC1 [Compound 77]
< 50 nM	50 to 500 nM	–	C=CC(=O)Nc1cc(Nc2cc(N3OCC[C@@H]3c3cc(F)cc(C(F)(F)F)c3)ncn2)c(OC)cc1N1CCC(N2CCN(C3CC3)CC2)CC1 [Compound 1]
50 to 500 nM	–	–	C=CC(=O)Nc1cc(Nc2cc(N3OCC[C@@H]3c3cccc(C(F)(F)F)c3F)ncn2)c(OC)cc1N1CCC(N2CCN(C3CC3)[C@H](C)C2)CC1 [Compound 68]
< 50 nM	–	–	C=CC(=O)Nc1cc(Nc2cc(N3OCC[C@@H]3c3cccc(C(F)(F)F)c3F)ncn2)c(OC)cc1N1CCC(N2CCNCC2)CC1 [Compound 97]

— US20230322753A1, “HETEROARYL DERIVATIVE, METHOD FOR PREPARATION THEREOF, AND PHARMACEUTICAL COMPOSITION COMPRISING SAME AS ACTIVE INGREDIENT” (VORONOI INC., priority 2020, published 2023)
